In US11464756B1, “Mecuna pruriens, L-DOPA and 5-HTP based dietary supplements, pharmaceutical formulations and uses thereof” (priority 2017, dated 2022):

Columns and labels:
[1] = tested on: serotonin levels; test: Short term rise of serotonin levels after taking 5-HTP; type: in vivo; conditions: short term result of taking 5-HTP
Experimental: Recently 5-HTP has been introduced to the US market. […] Taking 5-HTP in any of several forms can raise serotonin levels in a natural way by “Filling the Well”. There appears to be both a short term and long term results from taking 5-HTP. Short term there seems to be a ‘burst’ lasting 4-5 hours when levels rise, and long term as the “reservoir” or “water table” rises, to extend the metaphor, we notice that it takes much less 5-HTP to achieve the same result.

[2] = cited from earlier work

## N[C@@H](Cc1c[nH]c2ccc(O)cc12)C(=O)O [Example 5-HTP, 5-Hydroxy-tryptophan]
[1]
  duration of short term 'burst' when levels rise: 4 to 5 h
[2]
  time in which it is decarboxylated in the bloodstream: ≤ 45 min
